{"source": "ChEMBL document CHEMBL3808385", "about": "“Synthesis, antitumor evaluation and molecular docking studies of [1,2,4]triazolo[4,3-b][1,2,4,5]tetrazine derivatives” (Bioorg Med Chem Lett, 2016)", "key": {"[1]": {"assay": "Cytotoxicity against human HL60 cells assessed as cell growth inhibition after 72 hrs by MTT assay", "format": "functional, cell-based", "conditions": "HL-60, 72 h"}, "[2]": {"system": "BeWo", "assay": "Cytotoxicity against human Bewo cells assessed as cell growth inhibition after 72 hrs by MTT assay", "format": "functional, cell-based"}, "[3]": {"system": "MCF7", "assay": "Cytotoxicity against human MCF7 cells assessed as cell growth inhibition after 72 hrs by MTT assay", "format": "functional, cell-based", "conditions": "MCF7, 72 h"}, "[4]": {"system": "Mus musculus", "assay": "Toxicity in ICR mouse assessed as pulmonary congestion at 100 mg/kg, ig measured after 14 days", "format": "organism-based", "conditions": "in vivo, po, 336 h"}, "[5]": {"system": "Mus musculus", "assay": "Toxicity in ICR mouse assessed as convulsions on limbs at 81 mg/kg, ig measured after 14 days", "format": "organism-based, Limb", "conditions": "in vivo, po, 336 h"}, "[6]": {"system": "Mus musculus", "assay": "Toxicity in ICR mouse assessed as loss of locomotor activity at 72.9 mg/kg, ig measured after 14 days", "format": "organism-based", "conditions": "in vivo, po, 336 h"}, "[7]": {"system": "Mus musculus", "assay": "Toxicity in ICR mouse assessed as convulsions on limbs at 72.9 mg/kg, ig measured after 14 days", "format": "organism-based, Limb", "conditions": "in vivo, po, 336 h"}, "[8]": {"system": "CCRF S-180", "assay": "Antitumor activity against mouse S180 cells xenografted in ICR mouse assessed as tumor growth inhibition at 10 mg/kg, ig administered once daily for 7 days starting from second day post xenograft measured after 10 days", "format": "functional", "conditions": "CCRF S-180, po, read-out: TGI"}, "[9]": {"system": "Mus musculus", "assay": "Toxicity in ICR mouse assessed as convulsions on limbs at 90 mg/kg, ig measured after 14 days", "format": "organism-based, Limb", "conditions": "in vivo, po, 336 h"}, "[10]": {"system": "Mus musculus", "assay": "Toxicity in ICR mouse assessed as loss of locomotor activity at 100 mg/kg, ig measured after 14 days", "format": "organism-based", "conditions": "in vivo, po, 336 h"}, "[11]": {"system": "CCRF S-180", "assay": "Antitumor activity against mouse S180 cells xenografted in ICR mouse assessed as tumor growth inhibition at 20 mg/kg, ig administered once daily for 7 days starting from second day post xenograft measured after 10 days", "format": "functional", "conditions": "CCRF S-180, po, read-out: TGI"}, "[12]": {"system": "Mus musculus", "assay": "Toxicity in ICR mouse assessed as respiratory depression at 81 mg/kg, ig measured after 14 days", "format": "organism-based", "conditions": "in vivo, po, 336 h"}, "[13]": {"system": "CCRF S-180", "assay": "Antitumor activity against mouse S180 cells xenografted in ICR mouse assessed as tumor growth inhibition at 5 mg/kg, ig administered once daily for 7 days starting from second day post xenograft measured after 10 days", "format": "functional", "conditions": "CCRF S-180, po, read-out: TGI"}, "[14]": {"assay": "Toxicity in ICR mouse assessed as mortality at 72.9 mg/kg, ig measured after 14 days", "format": "organism-based", "conditions": "in vivo, po"}, "[15]": {"system": "Mus musculus", "assay": "Toxicity in ICR mouse assessed as pulmonary congestion at 90 mg/kg, ig measured after 14 days", "format": "organism-based", "conditions": "in vivo, po, 336 h"}, "[16]": {"system": "Mus musculus", "assay": "Toxicity in ICR mouse assessed as loss of locomotor activity at 90 mg/kg, ig measured after 14 days", "format": "organism-based", "conditions": "in vivo, po, 336 h"}, "[17]": {"assay": "Toxicity in ICR mouse assessed as mortality at 65.6 mg/kg, ig measured after 14 days", "format": "organism-based", "conditions": "in vivo, po"}, "[18]": {"system": "Mus musculus", "assay": "Toxicity in ICR mouse assessed as pulmonary congestion at 72.9 mg/kg, ig measured after 14 days", "format": "organism-based", "conditions": "in vivo, po, 336 h"}, "[19]": {"assay": "Toxicity in ig dosed ICR mouse assessed as mortality measured after 14 days", "format": "organism-based", "conditions": "in vivo, po"}, "[20]": {"system": "Mus musculus", "assay": "Toxicity in ICR mouse assessed as respiratory depression at 100 mg/kg, ig measured after 14 days", "format": "organism-based", "conditions": "in vivo, po, 336 h"}, "[21]": {"system": "Mus musculus", "assay": "Toxicity in ICR mouse assessed as clinical signs parameters at 65.6 mg/kg, ig measured after 14 days", "format": "organism-based", "conditions": "in vivo, po, 336 h"}, "[22]": {"system": "Mus musculus", "assay": "Toxicity in ICR mouse assessed as respiratory depression at 90 mg/kg, ig measured after 14 days", "format": "organism-based", "conditions": "in vivo, po, 336 h"}, "[23]": {"system": "Mus musculus", "assay": "Toxicity in ICR mouse assessed as loss of locomotor activity at 81 mg/kg, ig measured after 14 days", "format": "organism-based", "conditions": "in vivo, po, 336 h"}, "[24]": {"system": "Mus musculus", "assay": "Toxicity in ICR mouse assessed as convulsions on limbs at 100 mg/kg, ig measured after 14 days", "format": "organism-based, Limb", "conditions": "in vivo, po, 336 h"}, "[25]": {"system": "Mus musculus", "assay": "Toxicity in ICR mouse assessed as body weight loss at 65.6 mg/kg, ig measured after 14 days", "format": "organism-based", "conditions": "in vivo, po, 336 h"}, "[26]": {"target": "T1, Hepatocyte growth factor receptor (Homo sapiens, UniProt P08581)", "T1 sequence (P08581 whole entry)": "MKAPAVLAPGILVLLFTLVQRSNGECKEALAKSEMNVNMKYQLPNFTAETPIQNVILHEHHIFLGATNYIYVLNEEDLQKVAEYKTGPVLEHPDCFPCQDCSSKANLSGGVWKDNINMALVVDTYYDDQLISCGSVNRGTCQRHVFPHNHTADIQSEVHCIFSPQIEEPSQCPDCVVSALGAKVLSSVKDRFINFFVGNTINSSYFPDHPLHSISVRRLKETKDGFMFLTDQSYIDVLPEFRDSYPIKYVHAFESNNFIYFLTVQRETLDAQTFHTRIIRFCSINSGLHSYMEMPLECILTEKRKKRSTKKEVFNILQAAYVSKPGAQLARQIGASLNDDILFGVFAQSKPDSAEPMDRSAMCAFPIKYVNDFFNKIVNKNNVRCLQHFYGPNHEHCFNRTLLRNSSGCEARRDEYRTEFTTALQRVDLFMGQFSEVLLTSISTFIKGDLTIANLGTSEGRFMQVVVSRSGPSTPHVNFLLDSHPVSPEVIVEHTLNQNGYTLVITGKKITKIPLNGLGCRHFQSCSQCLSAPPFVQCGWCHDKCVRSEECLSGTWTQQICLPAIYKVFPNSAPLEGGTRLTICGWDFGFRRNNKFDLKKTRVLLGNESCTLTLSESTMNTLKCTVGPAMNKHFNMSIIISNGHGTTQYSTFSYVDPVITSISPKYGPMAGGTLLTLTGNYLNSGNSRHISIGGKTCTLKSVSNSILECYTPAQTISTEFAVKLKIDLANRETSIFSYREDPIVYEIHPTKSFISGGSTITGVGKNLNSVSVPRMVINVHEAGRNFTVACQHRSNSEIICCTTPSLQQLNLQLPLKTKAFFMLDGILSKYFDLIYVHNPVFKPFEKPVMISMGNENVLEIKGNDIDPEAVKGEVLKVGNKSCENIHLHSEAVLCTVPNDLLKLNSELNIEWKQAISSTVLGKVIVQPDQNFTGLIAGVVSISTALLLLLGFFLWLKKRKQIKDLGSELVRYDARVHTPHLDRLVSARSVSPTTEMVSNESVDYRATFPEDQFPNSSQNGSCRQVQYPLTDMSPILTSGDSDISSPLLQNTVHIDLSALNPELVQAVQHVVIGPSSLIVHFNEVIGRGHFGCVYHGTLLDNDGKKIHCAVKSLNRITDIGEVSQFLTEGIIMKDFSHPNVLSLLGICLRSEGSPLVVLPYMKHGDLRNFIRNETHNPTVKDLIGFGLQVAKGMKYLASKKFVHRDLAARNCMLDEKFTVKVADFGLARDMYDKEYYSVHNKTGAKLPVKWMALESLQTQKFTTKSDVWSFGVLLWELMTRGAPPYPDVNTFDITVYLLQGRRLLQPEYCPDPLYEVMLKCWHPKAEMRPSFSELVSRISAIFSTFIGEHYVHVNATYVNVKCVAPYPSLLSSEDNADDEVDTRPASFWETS", "assay": "Inhibition of cMET (unknown origin) using TK substrate-biotin as substrate preincubated with compound followed by substrate addition for 40 mins measured after 1 hr by HTRF assay"}, "[27]": {"system": "Mus musculus", "assay": "Toxicity in ICR mouse assessed as pulmonary congestion at 81 mg/kg, ig measured after 14 days", "format": "organism-based", "conditions": "in vivo, po, 336 h"}, "[28]": {"system": "Mus musculus", "assay": "Toxicity in ICR mouse assessed as respiratory depression at 72.9 mg/kg, ig measured after 14 days", "format": "organism-based", "conditions": "in vivo, po, 336 h"}, "[29]": {"target": "T1, Hepatocyte growth factor receptor", "assay": "Inhibition of cMET (unknown origin) using poly(Glu-Tyr) substrate incubated for 60 mins by ELISA"}}, "note": "pIC50: −log10 of the molar value.", "data": [{"molecule": "CC(Nc1nnc2nncn2n1)C(=O)O", "note": "(stereo not drawn)", "values": [{"measurement": "pIC50", "setting": "[1]", "value": 4.13}, {"measurement": "pIC50", "setting": "[2]", "value": 4.08}, {"measurement": "pIC50", "setting": "[3]", "value": "< 4.00"}]}, {"molecule": "Cc1cc(C)n(-c2nnc3nncn3n2)n1", "values": [{"measurement": "pIC50", "setting": "[1]", "value": 4.20}, {"measurement": "pIC50", "setting": "[2]", "value": 4.33}, {"measurement": "pIC50", "setting": "[3]", "value": "< 4.00"}]}, {"molecule": "CCCCCC(=O)N1CCN(c2nnc3nncn3n2)CC1", "values": [{"measurement": "pIC50", "setting": "[1]", "value": 5.44}, {"measurement": "pIC50", "setting": "[2]", "value": 5.53}, {"measurement": "pIC50", "setting": "[3]", "value": 5.28}]}, {"molecule": "c1nnc2nnc(NC3CCCCC3)nn12", "values": [{"measurement": "pIC50", "setting": "[1]", "value": 5.18}, {"measurement": "pIC50", "setting": "[2]", "value": 5.58}, {"measurement": "pIC50", "setting": "[3]", "value": 5.45}]}, {"molecule": "O=C(c1ccc(Cl)cc1)N1CCN(c2nnc3nncn3n2)CC1", "values": [{"measurement": "pIC50", "setting": "[1]", "value": 4.91}, {"measurement": "pIC50", "setting": "[2]", "value": 5.12}, {"measurement": "pIC50", "setting": "[3]", "value": 4.89}]}, {"molecule": "OCC(CO)(CO)Nc1nnc2nncn2n1", "values": [{"measurement": "pIC50", "setting": "[1]", "value": "< 4.00"}, {"measurement": "pIC50", "setting": "[2]", "value": 4.91}, {"measurement": "pIC50", "setting": "[3]", "value": "< 4.00"}]}, {"molecule": "CCCNc1nnc2nncn2n1", "values": [{"measurement": "pIC50", "setting": "[1]", "value": 4.82}, {"measurement": "pIC50", "setting": "[2]", "value": 4.84}, {"measurement": "pIC50", "setting": "[3]", "value": 4.70}]}, {"molecule": "c1nnc2nnc(N3CCOCC3)nn12", "values": [{"measurement": "Activity", "setting": "[4]", "value": "Toxic"}, {"measurement": "Activity", "setting": "[5]", "value": "Toxic"}, {"measurement": "pIC50", "setting": "[1]", "value": 5.84}, {"measurement": "Activity", "setting": "[6]", "value": "Toxic"}, {"measurement": "Activity", "setting": "[7]", "value": "Toxic"}, {"measurement": "inhibition in vivo at 10 mg/kg", "setting": "[8]", "value": 63, "unit": "%"}, {"measurement": "Activity", "setting": "[9]", "value": "Toxic"}, {"measurement": "Activity", "setting": "[10]", "value": "Toxic"}, {"measurement": "inhibition in vivo at 20 mg/kg", "setting": "[11]", "value": 27.9, "unit": "%"}, {"measurement": "Activity", "setting": "[12]", "value": "Toxic"}, {"measurement": "inhibition in vivo at 5 mg/kg", "setting": "[13]", "value": 24.2, "unit": "%"}, {"measurement": "mortality at 336 h", "setting": "[14]", "value": 25, "unit": "%"}, {"measurement": "Activity", "setting": "[15]", "value": "Toxic"}, {"measurement": "Activity", "setting": "[16]", "value": "Toxic"}, {"measurement": "mortality at 336 h", "setting": "[17]", "value": 0, "unit": "%"}, {"measurement": "pIC50", "setting": "[2]", "value": 5.89}, {"measurement": "Activity", "setting": "[18]", "value": "Toxic"}, {"measurement": "LD50 at 336 h", "setting": "[19]", "value": 82.5, "unit": "mg/kg"}, {"measurement": "Activity", "setting": "[20]", "value": "Toxic"}, {"measurement": "Activity", "setting": "[21]", "value": "Non-toxic"}, {"measurement": "Activity", "setting": "[22]", "value": "Toxic"}, {"measurement": "pIC50", "setting": "[3]", "value": 5.65}, {"measurement": "Activity", "setting": "[23]", "value": "Toxic"}, {"measurement": "Activity", "setting": "[24]", "value": "Toxic"}, {"measurement": "Activity", "setting": "[25]", "value": "Non-toxic"}, {"measurement": "pIC50", "setting": "[26]", "value": 4.93}, {"measurement": "Activity", "setting": "[27]", "value": "Toxic"}, {"measurement": "Activity", "setting": "[28]", "value": "Toxic"}]}, {"molecule": "COc1ccc2c(OCc3nnc4nnc(-c5ccccc5)nn34)ccnc2c1", "values": [{"measurement": "pIC50", "setting": "[29]", "value": 8.22}]}, {"molecule": "c1ccc(CCNc2nnc3nncn3n2)cc1", "values": [{"measurement": "pIC50", "setting": "[1]", "value": 5.38}, {"measurement": "pIC50", "setting": "[2]", "value": 5.60}, {"measurement": "pIC50", "setting": "[3]", "value": 5.91}]}, {"molecule": "CCCCNc1nnc2nncn2n1", "values": [{"measurement": "pIC50", "setting": "[1]", "value": 4.44}, {"measurement": "pIC50", "setting": "[2]", "value": 5.06}, {"measurement": "pIC50", "setting": "[3]", "value": 4.86}]}, {"molecule": "CC(C)COC(=O)N1CCN(c2nnc3nncn3n2)CC1", "values": [{"measurement": "pIC50", "setting": "[1]", "value": 5.10}, {"measurement": "pIC50", "setting": "[2]", "value": 4.88}, {"measurement": "pIC50", "setting": "[3]", "value": 5.27}]}, {"molecule": "c1nnc2nnc(N3CCCCC3)nn12", "values": [{"measurement": "pIC50", "setting": "[1]", "value": 4.63}, {"measurement": "pIC50", "setting": "[2]", "value": 4.97}, {"measurement": "pIC50", "setting": "[3]", "value": 4.57}]}, {"molecule": "CCCC(=O)N1CCN(c2nnc3nncn3n2)CC1", "values": [{"measurement": "pIC50", "setting": "[1]", "value": 5.01}, {"measurement": "pIC50", "setting": "[2]", "value": 5.17}, {"measurement": "pIC50", "setting": "[3]", "value": 5.16}]}, {"molecule": "OCCNc1nnc2nncn2n1", "values": [{"measurement": "pIC50", "setting": "[1]", "value": 4.34}, {"measurement": "pIC50", "setting": "[2]", "value": 5.48}, {"measurement": "pIC50", "setting": "[3]", "value": 4.94}]}]}
